In patent US20250353820A1, “ANTIVIRAL PYRAZOLOPYRIDINONE COMPOUNDS” (Novartis AG, priority 2019, published 2025):
Like-named read-outs stand apart in the source and are kept apart here.

How the values were obtained:
[1] = biological target: human CMV DNA polymerase UL54 (Human cytomegalovirus (strain AD169) (HHV-5) (Human herpesvirus 5), UniProt P08546); test: biochemical; conditions: 100 pM CMV polymerase, 60 minutes at room temperature; read-out: CMV-polymerase Biochemical IC50
[2] = biological target: human HSV DNA polymerase UL30 (Human herpesvirus 1 (strain 17) (HHV-1) (Human herpes simplex virus 1), UniProt P04293); test: biochemical; conditions: 625 pM HSV polymerase, 20 minutes at room temperature; read-out: HSV-polymerase Biochemical IC50
[3] = tested on: Luciferase-encoding HCMV (AD169 strain); test: microbe, parasite or virus in culture; type: cell-based
VZV Ellen strain = test: VZV qPCR assay; conditions: Human alphaherpesvirus 3, MRC5, 48 h, read-out: Cellular activity against VZV (EC50)
[4] = tested on: EBV (SNU-719 gastric carcinoma cell line latently infected); test: EBV qPCR assay; conditions: human gammaherpesvirus 4, 72 h, read-out: Cellular activity against EBV (EC50)
[5] = tested on: KOS strain of HSV-1 virus; test: HSV-1 qPCR assay; conditions: read-out: Cellular activity against HSV-1 (EC50)
[6] = tested on: HCMV-Rluc virus (AD169 pp28-hRluc rUL131); test: CMV Luciferase Assay of Compounds 243-262 in ARPE-19 cells; type: cell-based; conditions: Human betaherpesvirus 5, AD169, ARPE-19, 72 h, read-out: CMV-Luc Cellular EC50 in ARPE-19
Description: The assay uses a Luciferase-encoding HCMV. Luciferase is expressed under the control of a late viral gene (pp28) promoter in the AD169 strain, so that expression of the reporter is dependent on viral DNA replication. Compounds that affect any stage from viral entry to DNA replication result in a change in luciferase levels.
Compounds 243-262 were tested in a luminescence assay as follows.
ARPE-19 cells were maintained in growth medium (DMEM/F12 Glutamax+10 fetal bovine serum (FBS)+PenStrep) and, before reaching full confluence, were transferred to a centrifuge tube and spun for 5 minutes at 1000 rpm. The cells were resuspended in assay medium (DMEM/F12 Glutamax+2% FBS+PenStrep) and counted. Cell density was adjusted to one million cells per milliliter and infected with HCMV-Rluc virus (AD169 pp28-hRluc rUL131; MOI 0.6) in a 50 ml conical tube for 2 hours while shaking. After dilution of the infectious suspension ten-fold (to 100,000 cells per milliliter), 8000 cells are directly plated in 384-well plates pre-spotted with the compound to be tested. The cells were incubated for 72 hours at 37 degrees Celsius. Cells were then placed at room temperature and allowed to equilibrate for 20 minutes before addition of the Renilla-Glo (Promega) reagent. After a 10-minute incubation at room temperature, luminescence was measured on a microplate reader.

[7] = Human betaherpesvirus 5, AD169, 72 h, read-out: CMV-Luc Cellular EC50, NN-NHDF cells, MOI of 1, 72 hrs
[8] = read-out: CMV-Luc Cellular EC50, NN-NHDF cells, MOI of 1, 72 hrs

SMILES | IC50 [1] [nM] | IC50 [2] [nM] | EC50 [3, 8] [nM] | further results
CC(N)COCC(C)(C)S(=O)(=O)C1(CN2CCc3c(C(=O)NCc4ccc(C#N)cc4)nn(C)c3C2=O)CC1 (single isomer, unassigned) [Example 100, (R)- or (S)-6-((1-((1-(2-Aminopropoxy)-2-methylpropan-2-yl)sulfonyl)cyclopropyl)methyl)-N-(4-cyanobenzyl)-1-methyl-7-oxo-4,5,6,7-tetrahydro-1H-pyrazolo[3,4-c]pyridine-3-carboxamide] | 4 | 60 |  | EC50 [3, 7]: 13 nM
Cn1nc(C(=O)NCc2ccc(C#N)cc2)c2c1C(=O)N(CC1(S(=O)(=O)C3CCOC3)CC1)CC2 (single isomer, unassigned) [Example 171] | 3 | 78 | 104 | 
Cn1nc(C(=O)NCc2ccc(C#N)cc2)c2c1C(=O)N(CC1(S(=O)(=O)C(C)(CN)CO)CC1)CC2 (single isomer, unassigned) [Example 185] | 4 | 59 | 275 | 
Cn1nc(C(=O)NCc2ccc(C#N)cc2)c2c1C(=O)N(CC1(S(=O)(=O)C3(C(O)CO)CC3)CC1)CC2 (single isomer, unassigned) [Example 195, (R)- or (S)—N-(4-Cyanobenzyl)-6-((1-((1-(1,2-dihydroxyethyl)cyclopropyl)sulfonyl)cyclopropyl)methyl)-1-methyl-7-oxo-4,5,6,7-tetrahydro-1H-pyrazolo[3,4-c]pyridine-3-carboxamide] | 1 |  | 53 | 
Cn1nc(C(=O)NCc2ccc(Cl)cc2)c2c1C(=O)N(CC1(S(=O)(=O)C3(C(O)CO)CC3)CC1)CC2 (single isomer, unassigned) [Example 196] | 1 | 19 |  | EC50 [3, 7]: 19 nM
Cn1nc(C(=O)NCc2ccc(Cl)cc2)c2c1C(=O)N(CC1(S(=O)(=O)C3(C(O)CO)CC3)CC1)CC2 (single isomer, unassigned) [Example 197] | 1 |  | 20 | 
Cn1nc(C(=O)NCc2ccc(C#N)cc2)c2c1C(=O)N(CC1(S(=O)(=O)C(C)(C)C(O)CN)CC1)CC2 (single isomer, unassigned) [Example 199] | 1 | 28 |  | EC50 (VZV Ellen strain): 127 nM; EC50 [4]: 11 nM; EC50 ([5]; Human alphaherpesvirus 1, 24 h): 30 nM
Cn1nc(C(=O)NCc2ccc(Cl)cc2)c2c1C(=O)N(CC1(S(=O)(=O)C(C)(C)C(O)CN)CC1)CC2 (single isomer, unassigned) [Example 200] | 1 | 14 |  | 
Cn1nc(C(=O)NCc2ccc(Cl)cc2)c2c1C(=O)N(CC1(S(=O)(=O)C(C)(C)C(O)CN)CC1)CC2 (single isomer, unassigned) [Example 201] | 1 | 15 | 6 | EC50 ([3]; read-out: Cellular activity against CMV (EC50), Table 18, CMV): 6 nM; EC50 ([5]; NN-NHDF cells, MOI of 0.01, 24 hrs, qPCR): 18 nM
CNCC(O)C(C)(C)S(=O)(=O)C1(CN2CCc3c(C(=O)NCc4ccc(C#N)cc4)nn(C)c3C2=O)CC1 (single isomer, unassigned) [Example 202] | 2 | 30 |  | 
CNCC(O)C(C)(C)S(=O)(=O)C1(CN2CCc3c(C(=O)NCc4ccc(C#N)cc4)nn(C)c3C2=O)CC1 (single isomer, unassigned) [Example 203] | 2 | 38 | 19 | 
CNCC(O)C(C)(C)S(=O)(=O)C1(CN2CCc3c(C(=O)NCc4ccc(Cl)cc4)nn(C)c3C2=O)CC1 (single isomer, unassigned) [Example 204] | 3 | 37 |  | 
CNCC(O)C(C)(C)S(=O)(=O)C1(CN2CCc3c(C(=O)NCc4ccc(Cl)cc4)nn(C)c3C2=O)CC1 (single isomer, unassigned) [Example 205] | 2 | 29 | 9 | 
CN(C)CC(O)C(C)(C)S(=O)(=O)C1(CN2CCc3c(C(=O)NCc4ccc(Cl)cc4)nn(C)c3C2=O)CC1 (single isomer, unassigned) [Example 206] | 21 | 74 |  | 
CN(C)CC(O)C(C)(C)S(=O)(=O)C1(CN2CCc3c(C(=O)NCc4ccc(Cl)cc4)nn(C)c3C2=O)CC1 (single isomer, unassigned) [Example 207] | 23 | 88 | 50 | 
N#Cc1ccc(CNC(=O)c2n[nH]c3c2CCN(CC2(S(=O)(=O)C4CC4)CC2)C3=O)cc1 [Example 45, N-(4-Cyanobenzyl)-6-((1-(cyclopropylsulfonyl)cyclopropyl)methyl)-7-oxo-4,5,6,7-tetrahydro-1H-pyrazolo[3,4-c]pyridine-3-carboxamide] | 6 | 169 |  | EC50 [3, 7]: 146 nM
Cn1nc(C(=O)NCc2ccc(C#N)cc2)c2c1C(=O)N(CC1(S(=O)(=O)C(C)(C)COCCO)CC1)CC2 [Example 87, N-(4-Cyanobenzyl)-6-((1-((1-(2-hydroxyethoxy)-2-methylpropan-2-yl)sulfonyl)cyclopropyl)methyl)-1-methyl-7-oxo-4,5,6,7-tetrahydro-1H-pyrazolo[3,4-c]pyridine-3-carboxamide] | 1 | 32 |  | EC50 [3, 7]: 44 nM
CC(C)[C@@H](NS(=O)(=O)C1(CN2CCc3c(C(=O)NCc4ccc(Cl)cc4)nn(C)c3C2=O)CC1)C(=O)O [Example 215, ((1-((3-((4-Chlorobenzyl)carbamoyl)-1-methyl-7-oxo-1,4,5,7-tetrahydro-6H-pyrazolo[3,4-c]pyridin-6-yl)methyl)cyclopropyl)sulfonyl)-D-valine] | 1 | 28 |  | EC50 ([3]; NN-NHDF cells, MOI of 1, 72 hrs, read-out: CMV-Luc Cellular EC50): 1900 nM
Cn1nc(C(=O)NCc2ccc(C#N)cc2)c2c1C(=O)N(CC1(S(=O)(=O)C(C)(C)C(O)CO)CC1)CC2 (centres unmarked) [Example 252, N-(4-cyanobenzyl)-6-((1-((3,4-dihydroxy-2-methylbutan-2-yl)sulfonyl)cyclopropyl)methyl)-1-methyl-7-oxo-4,5,6,7-tetrahydro-1H-pyrazolo[3,4-c]pyridine-3-carboxamide] |  |  |  | EC50 [6]: 21.9 nM
